Test results as given in patent publication US20070032520A1, “Indol-5-yl sulfonamide derivatives, their preparation and their use 5-ht-6 as modulators” (Laboratorios Del Dr. Esteve S.A, priority 2003, published 2007).

melting point | SMILES
179 to 181 °C | CN(C)CCn1ccc2cc(NS(=O)(=O)c3cccc4ccccc34)ccc21 [Example 3, N-[1-(2-dimethylaminoethyl)-1H-indole-5-yl]-naphthalene-1-sulfonamide]
172 to 174 °C | CN(C)CCn1ccc2cc(NS(=O)(=O)c3cccc4c(Cl)cccc34)ccc21 [Example 4, N-[1-(2-dimethylaminoethyl)-1H-indole-5-yl]-5-chloronaphthalene-1-sulfonamide]
50 to 52 °C | CN(C)CCn1ccc2cc(NS(=O)(=O)c3c(Cl)nc4sccn34)ccc21 [Example 11, N-[1-(2-dimethylaminoethyl)-1H-indole-5-yl]-6-chloroimidazo[2,1-b]thiazole-5-sulfonamide]
124 to 126 °C | CN(C)CCn1ccc2cc(NS(=O)(=O)c3cc(Cl)cc(Cl)c3)ccc21 [Example 12, N-[1-(2-dimethylaminoethyl)-1H-indole-5-yl]-3,5-dichlorobenzenesulfonamide]
114 to 116 °C | CN(C)CCn1ccc2cc(NS(=O)(=O)c3cccc(Br)c3)ccc21 [Example 13, N-[1-(2-dimethylaminoethyl)-1H-indole-5-yl]-3-bromobenzenesulfonamide]
120 to 123 °C | CN(C)CCn1ccc2cc(NS(=O)(=O)c3cc(Cl)c(Cl)s3)ccc21 [Example 20, N-[1-(2-dimethylaminoethyl)-1H-indole-5-yl]-4,5-dichlorothiophene-2-sulfonamide]
